Results published in patent publication US9498513B2, “Antimicrobial bacteria strains and uses thereof” (priority 2010, dated 2016).

Tests used:
[1] = system: A. Baumannii (MDR); assay: Antimicrobial activity against susceptible and resistant strains (dilution); assay type: cell-based, Acinetobacter baumannii; conditions: given as dilution ratio; antibiotics 1.28 mg/ml
Method: (§1) A concentrated antimicrobial compound (CAC) was prepared as an antimicrobial agent. 2.1 L of an overnight bacterial culture of G346a was centrifuged at 10,000× g for 20 min, and then subject to 0.2 μm filtration. The supernatant was subject to 10-15% TCA precipitation for 1 hour, and then centrifugation at 4,000× for 20 min. The pellet was re-suspended in 3 mL 50 mM NH4HCO3, and then neutralized with 320 μL NH4OH. The resulting concentrated antimicrobial compound (CAC) was tested for its antimicrobial activity against susceptible and resistant strains as shown in TABLE 5.

[2] = system: S. aureus (MRSA); assay: as above; assay type: cell-based, Staphylococcus aureus; conditions: given as dilution ratio; antibiotics 1.28 mg/ml
Method: as §1

| Structure (SMILES) | antimicrobial activity A. Baumannii (MDR) [1] | antimicrobial activity S. aureus (MRSA) [2] |
| --- | --- | --- |
| CC1(C)S[C@@H]2[C@H](NC(=O)[C@H](N)c3ccccc3)C(=O)N2[C@H]1C(=O)O [Ampicillin] | No Inhibition | No |
| CC1(C)S[C@@H]2[C@H](NC(=O)C(C(=O)O)c3ccccc3)C(=O)N2[C@H]1C(=O)O (stereo partly shown) [Carbenicillin] | No Inhibition | No |
